Assay results: patent US20230271950A1, “ANTIBACTERIAL PICOLINAMIDE COMPOUNDS” (University of Notre Dame Du Lac, priority 2020, published 2023)
Where two headings read alike, the source gives them in different places.

System: C. difficile
Experiment: MIC by broth microdilution against C. difficile strains
Assay type: cell-based, Clostridioides difficile

CCc1c(Cl)c(O)c(Cl)c(O)c1C(=O)O[C@H]1[C@H](O)[C@H](OC)[C@H](OC/C2=C\C=C\C[C@H](O)/C(C)=C/[C@H](CC)[C@@H](O[C@@H]3OC(C)(C)[C@@H](OC(=O)C(C)C)[C@H](O)[C@@H]3O)/C(C)=C/C(C)=C/C[C@@H]([C@@H](C)O)OC2=O)O[C@@H]1C [FDX, fidaxomicin, reference compound]
< 0.25 µg/mL: MIC (Clostridioides difficile, BAA1804, C. difficile BAA-1804, Table 7, read-out: MIC)
1 µg/mL: MIC (Clostridioides difficile, BAA1803, C. difficile BAA-1803, Table 7, read-out: MIC) | MIC (Clostridioides difficile, BAA1803, C. difficile BAA-1803, Table 9, read-out: MIC)
128 fold: selectivity toward C. difficile relative to MRSA (C. difficile ATCC43255 relative to MRSA NRS70)
0.0625 µg/mL: MIC (Clostridioides difficile, ATCC43255, C. difficile ATCC43255, Table 7, read-out: MIC) | MIC (Clostridioides difficile, C. difficile 24923 (VR, vancomycin-resistant), Table 7, read-out: MIC)
0.06 µg/mL: MIC (Clostridioides difficile, ATCC43255, C. difficile ATCC43255 (TcdA+, TcdB+), Table 1, read-out: MIC) | MIC (Clostridioides difficile, ATCC43255, C. difficile ATCC43255, Table 9, read-out: MIC) | MIC (Clostridioides difficile, C. difficile 24923, Table 9, read-out: MIC) | MIC (Clostridioides difficile, C. difficile HM-747, Table 9, read-out: MIC) | MIC (Clostridioides difficile, C. difficile NR-13434, Table 9, read-out: MIC) | MIC (Clostridioides difficile, C. difficile NR-13438, Table 9, read-out: MIC)
≤ 0.01 µg/mL: MIC (Clostridioides difficile, C. difficile NR49310, Table 7, read-out: MIC) | MIC (Clostridioides difficile, C. difficile NR49310, Table 9, read-out: MIC)
0.125 µg/mL: MIC (C. difficile BAA-1801, Table 9) | MIC (C. difficile HM-745, Table 9) | MIC (C. difficile NR49318, Table 9) | MIC (C. difficile NR-13431, Table 9) | MIC (C. difficile NR-13433, Table 9) | MIC (C. difficile NR-13436, Table 9) | MIC (C. difficile NR-32883, Table 9) | MIC (C. difficile NR-32887, Table 9) | MIC (C. difficile NR-49280, Table 9) | MIC (C. difficile NR-49298, Table 9) | MIC (C. difficile NR-49299, Table 9) | MIC (C. difficile NR-49308, Table 9) | MIC (C. difficile NR-49312, Table 9) | MIC (C. difficile NR-49316, Table 9) | MIC (C. difficile NR-49319, Table 9) | MIC (C. difficile NR-49320, Table 9) | MIC (C. difficile NR-49321, Table 9) | MIC (Clostridioides difficile) | MIC (Clostridioides difficile, BAA1801) | MIC (Clostridioides difficile, BAA1804)
> 8 µg/mL: MIC (Clostridioides difficile, C. difficile 23828 (FR, fidaxomicin-resistant), Table 7, read-out: MIC) | MIC (Clostridioides difficile, C. difficile 23828, clinical isolate resistant to FDX, Table 1, read-out: MIC) | MIC (Clostridioides difficile, C. difficile 23828, Table 9, read-out: MIC) | MIC (Clostridioides difficile, C. difficile 27081 (FR, fidaxomicin-resistant), Table 7, read-out: MIC) | MIC (Clostridioides difficile, C. difficile 27081, Table 9, read-out: MIC)
4 µg/mL: MIC (Clostridioides difficile, C. difficile 23691 (VR, vancomycin-resistant), Table 7, read-out: MIC) | MIC (Clostridioides difficile, C. difficile 23691, clinical isolate resistant to VAN, Table 1, read-out: MIC) | MIC (Clostridioides difficile, C. difficile 23691, Table 9, read-out: MIC) | MIC (Clostridioides difficile, C. difficile 26675 (MR, metronidazole-resistant), Table 7, read-out: MIC) | MIC (Clostridioides difficile, C. difficile 26675, clinical isolate resistant to MTZ, Table 1, read-out: MIC) | MIC (Clostridioides difficile, C. difficile 26675, Table 9, read-out: MIC)
≤ 0.03 µg/mL: MIC (Clostridioides difficile, C. difficile HM-746, Table 9, read-out: MIC) | MIC (Clostridioides difficile, C. difficile NR-13428, Table 9, read-out: MIC) | MIC (Clostridioides difficile, C. difficile NR-13430, Table 9, read-out: MIC) | MIC (Clostridioides difficile, C. difficile NR-13435, Table 9, read-out: MIC) | MIC (Clostridioides difficile, C. difficile NR-13553, Table 9, read-out: MIC)
0.03 µg/mL: MIC (Clostridioides difficile, BAA1814, C. difficile BAA-1814, Table 7, read-out: MIC) | MIC (Clostridioides difficile, BAA1814, C. difficile BAA-1814, Table 9, read-out: MIC) | MIC (Clostridioides difficile, C. difficile HM-88, Table 9, read-out: MIC) | MIC (Clostridioides difficile, C. difficile HM-89, Table 9, read-out: MIC) | MIC (Clostridioides difficile, C. difficile NR49302, Table 7, read-out: MIC) | MIC (Clostridioides difficile, C. difficile NR49302, Table 9, read-out: MIC) | MIC (Clostridioides difficile, C. difficile NR-13427, Table 9, read-out: MIC)
0.5 µg/mL: MIC (Clostridioides difficile, C. difficile NR49292, Table 7, read-out: MIC) | MIC (Clostridioides difficile, C. difficile NR49292, Table 9, read-out: MIC)
0.01 µg/mL: MIC (Clostridioides difficile, ATCC43598, C. difficile ATCC43598, Table 7, read-out: MIC) | MIC (Clostridioides difficile, ATCC43598, C. difficile ATCC43598, Table 9, read-out: MIC) | MIC (Clostridioides difficile, C. difficile 24531 (VR, vancomycin-resistant), Table 7, read-out: MIC) | MIC (Clostridioides difficile, C. difficile 24531, Table 9, read-out: MIC) | MIC (Clostridioides difficile, C. difficile 27173 (MR, metronidazole-resistant), Table 7, read-out: MIC) | MIC (Clostridioides difficile, C. difficile 27173, Table 9, read-out: MIC) | MIC (Clostridioides difficile, C. difficile NR49294, Table 7, read-out: MIC) | MIC (Clostridioides difficile, C. difficile NR49294, Table 9, read-out: MIC) | MIC (Clostridioides difficile, C. difficile NR49305, Table 7, read-out: MIC) | MIC (Clostridioides difficile, C. difficile NR49305, Table 9, read-out: MIC)
0.015 µg/mL: MIC (Clostridioides difficile, BAA1812, C. difficile BAA-1812, Table 7, read-out: MIC) | MIC (Clostridioides difficile, BAA1812, C. difficile BAA-1812, Table 9, read-out: MIC)
0.25 µg/mL: MIC (Clostridioides difficile, BAA1870, C. difficile BAA-1870 (NAP1, ribotype 27), Table 1, read-out: MIC) | MIC (Clostridioides difficile, BAA1870, C. difficile BAA-1870, Table 7, read-out: MIC) | MIC (Clostridioides difficile, BAA1870, C. difficile BAA-1870, Table 9, read-out: MIC) | MIC (Clostridioides difficile, C. difficile NR-13429, Table 9, read-out: MIC) | MIC (Clostridioides difficile, C. difficile NR-13437, Table 9, read-out: MIC)
